Source: US7141570B2, “N-aryl-2-oxazolidinone-5-carboxamides and their derivatives” (Pharmacia & Upjohn Company, priority 2002, dated 2006)
In brackets after ≈: the same amount, converted by molar mass.

Columns and labels:
Experiment in all cases: MIC, agar dilution
Format in all cases: cell-based
[1] = test system: M. catarrhalis (MCAT 30607); details: Moraxella catarrhalis, M. catarrhalis 30607, overnight at 35° C.
Procedure: (§1) The in vitro MICs of test compounds were determined by a standard agar dilution method. A stock drug solution of each analog was prepared in the preferred solvent, usually DMSO:H2O (1:3). Serial 2-fold dilutions of each sample are made using 1.0 ml aliquots of sterile distilled water. To each 1.0 ml aliquot of drug was added 9 ml of molten Mueller Hinton agar medium. The drug-supplemented agar was mixed, poured into 15×100 mm petri dishes, and allowed to solidify and dry prior to inoculation.
(§2) Vials of each of the test organisms are maintained frozen in the vapor phase of a liquid nitrogen freezer. Test cultures are grown overnight at 35° C. on the medium appropriate for the organism. Colonies are harvested with a sterile swab, and cell suspensions are prepared in Trypticase Soy broth (TSB) to equal the turbidity of a 0.5 McFarland standard. A 1:20 dilution of each suspension was made in TSB. The plates containing the drug supplemented agar are inoculated with a 0.001 ml drop of the cell suspension using a Steers replicator, yielding approximately 10^4 to 10^5 cells per spot. The plates are incubated overnight at 35° C.
(§3) Following incubation the Minimum Inhibitory Concentration (MIC μg/ml), the lowest concentration of drug that inhibits visible growth of the organism, was read and recorded.

E. Faecium (EFAE 12712) = details: Enterococcus faecium, E. Faecium 12712, overnight at 35° C.
Procedure: as §1, §2, §3

[2] = test system: H. influenzae (HINF 31810); details: Haemophilus influenzae, H. influenzae 31810, overnight at 35° C.
Procedure: as §1, §2, §3

[3] = test system: S. epidermidis (SEPI 30593); details: Staphylococcus epidermidis, S. epidermidis 30593, overnight at 35° C.
Procedure: as §1, §2, §3

E. Faecalis (EFAE 9217) = details: Enterococcus faecalis, E. Faecalis 9217, overnight at 35° C.
Procedure: as §1, §2, §3

S. pneumonia (SPNE 9912) = details: S. pneumonia 9912, overnight at 35° C.
Procedure: as §1, §2, §3

S. aureus (SAUR 31583) = details: Staphylococcus aureus, S. aureus 31583, overnight at 35° C.
Procedure: as §1, §2, §3

S. pyogenes (SPYO 152) = details: Streptococcus pyogenes, S. pyogenes 152, overnight at 35° C.
Procedure: as §1, §2, §3

[4] = test system: H. influenzae (HINF 30063); details: Haemophilus influenzae, H. influenzae 30063, overnight at 35° C.
Procedure: as §1, §2, §3

S. aureus (SAUR 9213) = details: Staphylococcus aureus, S. aureus 9213, overnight at 35° C.
Procedure: as §1, §2, §3

SMILES | MIC [1] [µg/mL] | MIC (E. Faecium (EFAE 12712)) [µg/mL] | MIC [2] [µg/mL] | MIC [3] [µg/mL] | MIC (E. Faecalis (EFAE 9217)) [µg/mL] | MIC (S. pneumonia (SPNE 9912)) [µg/mL] | MIC (S. aureus (SAUR 31583)) [µg/mL] | MIC (S. pyogenes (SPYO 152)) [µg/mL] | MIC [4] [µg/mL] | MIC (S. aureus (SAUR 9213)) [µg/mL]
CC(=O)NC[C@H]1CN(c2ccc(N3CCN(C(=O)COc4ccc(CN(C)C)cc4)CC3)c(F)c2)C(=O)O1 [Compound 14] | 32 (≈ 60.7 µM) | 8 (≈ 15.2 µM) | 32 (≈ 60.7 µM) | 8 (≈ 15.2 µM) | 8 (≈ 15.2 µM) | 0.5 (≈ 0.948 µM) | > 64 | 0.5 (≈ 0.948 µM) | 64 (≈ 121 µM) | 16 (≈ 30.3 µM)
CN(C)Cc1ccc(OCC(=O)N2CCN(c3ccc(N4C[C@H](CNC(=S)C5CC5)OC4=O)cc3F)CC2)cc1 [Compound 2] | 2 (≈ 3.51 µM) | 1 (≈ 1.76 µM) | 8 (≈ 14 µM) | 1 (≈ 1.76 µM) | 1 (≈ 1.76 µM) | 0.125 (≈ 0.219 µM) | 4 (≈ 7.02 µM) | 0.125 (≈ 0.219 µM) | 16 (≈ 28.1 µM) | 2 (≈ 3.51 µM)
CCC(=S)NC[C@H]1CN(c2ccc(N3CCN(C(=O)COc4ccc(CN(C)C)cc4)CC3)c(F)c2)C(=O)O1 [Compound 13] | 4 (≈ 7.17 µM) | 2 (≈ 3.59 µM) | 16 (≈ 28.7 µM) | 1 (≈ 1.79 µM) | 1 (≈ 1.79 µM) | 0.125 (≈ 0.224 µM) | 16 (≈ 28.7 µM) | 0.25 (≈ 0.448 µM) | 16 (≈ 28.7 µM) | 8 (≈ 14.3 µM)
CN1CCN(Cc2ccc(OCC(=O)N3CCN(c4ccc(N5C[C@H](CNC(=S)C6CC6)OC5=O)cc4F)CC3)cc2)CC1 [Compound 23] | 32 (≈ 51.2 µM) | 8 (≈ 12.8 µM) | 64 (≈ 102 µM) | 8 (≈ 12.8 µM) | – | 0.5 (≈ 0.8 µM) | > 64 | 0.5 (≈ 0.8 µM) | 64 (≈ 102 µM) | 16 (≈ 25.6 µM)
CCC(=S)NC[C@H]1CN(c2ccc(N3CCN(C(=O)COc4ccc(CN5CCOCC5)cc4)CC3)c(F)c2)C(=O)O1 [Compound 17] | 4 (≈ 6.67 µM) | 2 (≈ 3.33 µM) | 32 (≈ 53.4 µM) | 2 (≈ 3.33 µM) | 1 (≈ 1.67 µM) | 0.25 (≈ 0.417 µM) | 32 (≈ 53.4 µM) | 0.5 (≈ 0.834 µM) | 64 (≈ 107 µM) | 8 (≈ 13.3 µM)
CCC(=S)NC[C@H]1CN(c2ccc(N3CCN(C(=O)COc4ccc(CN5CCN(C)CC5)cc4)CC3)c(F)c2)C(=O)O1 [Compound 22] | 2 (≈ 3.26 µM) | 2 (≈ 3.26 µM) | 16 (≈ 26.1 µM) | 2 (≈ 3.26 µM) | – | 0.125 (≈ 0.204 µM) | 32 (≈ 52.2 µM) | 0.25 (≈ 0.408 µM) | 32 (≈ 52.2 µM) | 8 (≈ 13.1 µM)
CC(=O)NC[C@H]1CN(c2ccc(N3CCN(C(=O)COc4ccc(CN5CCOCC5)cc4)CC3)c(F)c2)C(=O)O1 [Compound 19] | 64 (≈ 112 µM) | 8 (≈ 14 µM) | 64 (≈ 112 µM) | 8 (≈ 14 µM) | 4 (≈ 7.02 µM) | 1 (≈ 1.76 µM) | > 64 | 1 (≈ 1.76 µM) | > 64 | 16 (≈ 28.1 µM)
CCN(CC)Cc1ccc(OCC(=O)N2CCN(c3ccc(N4C[C@H](CNC(C)=O)OC4=O)cc3F)CC2)cc1 [Compound 8] | 32 (≈ 57.6 µM) | 32 (≈ 57.6 µM) | > 64 | 8 (≈ 14.4 µM) | 32 (≈ 57.6 µM) | 2 (≈ 3.6 µM) | > 64 | 2 (≈ 3.6 µM) | > 64 | 32 (≈ 57.6 µM)
CCN(CC)Cc1ccc(OCC(=O)N2CCN(c3ccc(N4C[C@H](CNC(=S)C5CC5)OC4=O)cc3F)CC2)cc1 [Compound 10] | 2 (≈ 3.35 µM) | 2 (≈ 3.35 µM) | 32 (≈ 53.5 µM) | 1 (≈ 1.67 µM) | 2 (≈ 3.35 µM) | 0.25 (≈ 0.418 µM) | 8 (≈ 13.4 µM) | 0.25 (≈ 0.418 µM) | 32 (≈ 53.5 µM) | 2 (≈ 3.35 µM)
CC(=O)NC[C@H]1CN(c2ccc(N3CCN(C(=O)COc4ccc(CN5CCN(C)CC5)cc4)CC3)c(F)c2)C(=O)O1 [Compound 24] | 2 (≈ 3.43 µM) | 2 (≈ 3.43 µM) | 16 (≈ 27.5 µM) | 2 (≈ 3.43 µM) | – | 0.125 (≈ 0.215 µM) | 16 (≈ 27.5 µM) | 0.25 (≈ 0.429 µM) | 32 (≈ 54.9 µM) | 4 (≈ 6.86 µM)
CCC(=S)NC[C@H]1CN(c2ccc(N3CCN(C(=O)COc4ccc(CN(CC)CC)cc4)CC3)c(F)c2)C(=O)O1 [Compound 9] | 4 (≈ 6.83 µM) | 2 (≈ 3.41 µM) | 32 (≈ 54.6 µM) | 2 (≈ 3.41 µM) | 2 (≈ 3.41 µM) | 0.25 (≈ 0.427 µM) | 32 (≈ 54.6 µM) | 0.25 (≈ 0.427 µM) | 32 (≈ 54.6 µM) | 4 (≈ 6.83 µM)
O=C(COc1ccc(CN2CCOCC2)cc1)N1CCN(c2ccc(N3C[C@H](CNC(=S)C4CC4)OC3=O)cc2F)CC1 [Compound 18] | 2 (≈ 3.27 µM) | 2 (≈ 3.27 µM) | 32 (≈ 52.3 µM) | 1 (≈ 1.63 µM) | 1 (≈ 1.63 µM) | 0.25 (≈ 0.409 µM) | 16 (≈ 26.2 µM) | 0.25 (≈ 0.409 µM) | 64 (≈ 105 µM) | 4 (≈ 6.54 µM)
